The record followed here is US4987258A, “4,4'-diaminodiphenyl compounds, process for their preparation and their use” (Hoechst Aktiengesellschaft, priority 1987, dated 1991).

For one series, the system named is Salmonella typhimurium (strains TA 98, TA 100, TA 1535, TA 1537, TA 1538). The series is described as follows: Ames mutagenicity test with Salmonella typhimurium in the absence and presence of S-9-mix. Format: cell-based.
Conditions: not given
The protocol:
The examples below will describe the invention in more detail. The mutagenicity test was carried out, following Ames, with Salmonella typhimurium (strains TA 98, TA 100, TA 1535, TA 1537, TA 1538) in the absence and presence of S-9-mix (B. N. Ames et al., Mut. Res. Vol. 31, p. 347-364 (1975)).
(In general: The Ames test detects mutagens through reverse mutation in bacteria.)
Consider `CCC(C)c1cc(-c2ccc(N)c(C(C)CC)c2)ccc1N` (stereo not shown), for which the Ames test entry was “negative”.

As to `CCCc1cc(-c2ccc(N)c(CCC)c2)ccc1N` [Example 4], the Ames test result was “negative”.

For the molecule `CCCCc1cc(-c2ccc(N)c(CCCC)c2)ccc1N` [Example 5], the Ames test entry is given as “negative”.

For the molecule `CC(C)Cc1cc(-c2ccc(N)c(CC(C)C)c2)ccc1N` [Example 6], the Ames test result is “negative”.

Consider `CCCOc1cc(-c2ccc(N)c(OCCC)c2)ccc1N` [Example 8], for which the Ames test entry is “negative”.

As for `CC(C)Oc1cc(-c2ccc(N)c(OC(C)C)c2)ccc1N` [Example 9], the Ames test result is “negative”.

For the molecule `CCC(C)Oc1cc(-c2ccc(N)c(OC(C)CC)c2)ccc1N` (stereo not shown) [Example 10], the Ames test result is given as “negative”.

Staying with this series, now noted: Examples 1-3.
`CC(C)c1cc(-c2ccc(N)c(C(C)C)c2)ccc1N` [Example 1, 3,3-diisopropylbenzidine dichlorohydrate]: the Ames mutagenicity test entry is “negative”.

Regarding `CC(C)COc1cc(-c2ccc(N)c(OCC(C)C)c2)ccc1N` [Example 2, 3,3'-diisobutoxybenzidine], the Ames mutagenicity test result is listed as “negative”.

On to `COCCOc1cc(-c2ccc(N)c(OCCOC)c2)ccc1N` [Example 3, 3,3'-di(2-methoxyethoxy)-benzidine], for which the Ames mutagenicity test result is listed as “negative”.
